Assay results published in PubChem BioAssay (NCI).
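GI50 marks 50% less growth. TGI: concentration producing complete growth inhibition.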

Experiments:
Experiment in all cases: NCI-60 cell line screen, 384-well format; in the data active = GI50 below about 0.43 µM; inactive = the rest
786-0 renal = tested on: 786-0 renal
COLO 205 colon = tested on: COLO 205 colon
DU-145 prostate = tested on: DU-145 prostate
EKVX NSCLC = tested on: EKVX NSCLC
HCT-116 colon = tested on: HCT-116 colon
HS 578T breast = tested on: HS 578T breast
IGROV1 ovarian = tested on: IGROV1 ovarian
OVCAR-3 ovarian = tested on: OVCAR-3 ovarian
OVCAR-8 ovarian = tested on: OVCAR-8 ovarian
SF-268 CNS = tested on: SF-268 CNS
SF-539 CNS = tested on: SF-539 CNS
SK-MEL-5 melanoma = tested on: SK-MEL-5 melanoma
SN12C renal = tested on: SN12C renal

C[C@H](N)C(=O)N1C[C@H](CCCB(O)O)[C@](N)(C(=O)O)C1
> 100 µM: TGI (786-0 renal) | TGI (COLO 205 colon) | TGI (DU-145 prostate) | TGI (EKVX NSCLC) | TGI (HCT-116 colon) | TGI (HS 578T breast) | TGI (IGROV1 ovarian) | TGI (OVCAR-3 ovarian) | TGI (OVCAR-8 ovarian) | TGI (SF-268 CNS) | TGI (SF-539 CNS) | TGI (SK-MEL-5 melanoma) | TGI (SN12C renal)
inactive: GI50 (786-0 renal) > 100 µM | GI50 (COLO 205 colon) > 92 µM | GI50 (DU-145 prostate) > 100 µM | GI50 (EKVX NSCLC) > 100 µM | GI50 (HCT-116 colon) > 100 µM | GI50 (HS 578T breast) > 100 µM | GI50 (IGROV1 ovarian) > 100 µM | GI50 (OVCAR-3 ovarian) > 100 µM | GI50 (OVCAR-8 ovarian) > 100 µM | GI50 (SF-268 CNS) > 100 µM | GI50 (SF-539 CNS) > 100 µM | GI50 (SK-MEL-5 melanoma) > 100 µM | GI50 (SN12C renal) > 100 µM
